System: 996289-038-R-J1-PDC complex spheroid viability
Assay: Anticancer human tumor 996289-038-R-J1-PDC patient-derived colon adenocarcinoma cell line growth inhibition [CLK]
Details: for IC50: curve of first compound; for viability, T/C: stronger effect = lower value
Summary of the method: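 Multi-cell-type spheroids combined patient-derived tumor cells with HUVEC endothelial cells and human mesenchymal stem cells. Paired agents were dosed in half-log steps down from about clinical Cmax, or from 10 microM where Cmax was unknown.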

[1] = second compound 0.0316 µM, first compound 0.0316 µM
[2] = second compound 0.0316 µM, first compound 0.1 µM
[3] = second compound 0.0316 µM, first compound 0.316 µM
[4] = second compound 0.0316 µM, first compound 1 µM
[5] = second compound 0.0316 µM, first compound 3.16 µM
[6] = second compound 0.0316 µM, first compound 10 µM
[7] = second compound 0.1 µM, first compound 0.0316 µM
[8] = second compound 0.1 µM, first compound 0.1 µM
[9] = second compound 0.1 µM, first compound 0.316 µM
[10] = second compound 0.1 µM, first compound 1 µM
[11] = second compound 0.1 µM, first compound 3.16 µM
[12] = second compound 0.1 µM, first compound 10 µM
[13] = second compound 0.316 µM, first compound 0.0316 µM
[14] = second compound 0.316 µM, first compound 0.1 µM
[15] = second compound 0.316 µM, first compound 0.316 µM
[16] = second compound 0.316 µM, first compound 1 µM
[17] = second compound 0.316 µM, first compound 3.16 µM
[18] = second compound 0.316 µM, first compound 10 µM
[19] = second compound 1 µM, first compound 0.0316 µM
[20] = second compound 1 µM, first compound 0.1 µM
[21] = second compound 1 µM, first compound 0.316 µM
[22] = second compound 1 µM, first compound 1 µM
[23] = second compound 1 µM, first compound 3.16 µM
[24] = second compound 1 µM, first compound 10 µM
[25] = second compound 3.16 µM, first compound 0.0316 µM
[26] = second compound 3.16 µM, first compound 0.1 µM
[27] = second compound 3.16 µM, first compound 0.316 µM
[28] = second compound 3.16 µM, first compound 1 µM
[29] = second compound 3.16 µM, first compound 3.16 µM
[30] = second compound 3.16 µM, first compound 10 µM
[31] = second compound 10 µM, first compound 0.0316 µM
[32] = second compound 10 µM, first compound 0.1 µM
[33] = second compound 10 µM, first compound 0.316 µM
[34] = second compound 10 µM, first compound 1 µM
[35] = second compound 10 µM, first compound 3.16 µM
[36] = second compound 10 µM, first compound 10 µM
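Further: spheroids exposed to the agents for 7 days before readout.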

## CC(=O)O[C@H]1C(=O)[C@@]2(C)[C@H]([C@H](OC(=O)c3ccccc3)[C@]3(O)C[C@H](OC(=O)[C@H](O)[C@@H](NC(=O)c4ccccc4)c4ccccc4)C(C)=C1C3(C)C)[C@]1(OC(C)=O)CO[C@@H]1C[C@@H]2O + CN1CCN(c2cc(C(=O)Nc3cc4cc(-c5cnn(C)c5)ccc4cn3)ccn2)CC1
Second compound 0.0316 µM
  IC50: > 10000 nM
Second compound 0.1 µM
  IC50: 947 nM
Second compound 0.316 µM
  IC50: 50.7 nM
Second compound 1 µM
  IC50: < 31.6 nM
Second compound 3.16 µM
  IC50: < 31.6 nM
Second compound 10 µM
  IC50: < 31.6 nM
[1]
  viability, T/C: 94%
[2]
  viability, T/C: 80.4%
[3]
  viability, T/C: 64.1%
[4]
  viability, T/C: 57.5%
[5]
  viability, T/C: 54.8%
[6]
  viability, T/C: 54.5%
[7]
  viability, T/C: 83.2%
[8]
  viability, T/C: 77.6%
[9]
  viability, T/C: 58.6%
[10]
  viability, T/C: 50%
[11]
  viability, T/C: 48.1%
[12]
  viability, T/C: 48.2%
[13]
  viability, T/C: 52.1%
[14]
  viability, T/C: 49.1%
[15]
  viability, T/C: 39.1%
[16]
  viability, T/C: 34.2%
[17]
  viability, T/C: 36.9%
[18]
  viability, T/C: 38.3%
[19]
  viability, T/C: 2.95%
[20]
  viability, T/C: 3.46%
[21]
  viability, T/C: 2.81%
[22]
  viability, T/C: 5.29%
[23]
  viability, T/C: 3.96%
[24]
  viability, T/C: 3.89%
[25]
  viability, T/C: 2.65%
[26]
  viability, T/C: 0.84%
[27]
  viability, T/C: 1.67%
[28]
  viability, T/C: 2.13%
[29]
  viability, T/C: 1.35%
[30]
  viability, T/C: 0.72%
[31]
  viability, T/C: 1.84%
[32]
  viability, T/C: 1.49%
[33]
  viability, T/C: 0.61%
[34]
  viability, T/C: 0.57%
[35]
  viability, T/C: 0.83%
[36]
  viability, T/C: 2.14%

## CCc1c2c(nc3ccc(O)cc13)-c1cc3c(c(=O)n1C2)COC(=O)[C@]3(O)CC + CN1CCN(c2cc(C(=O)Nc3cc4cc(-c5cnn(C)c5)ccc4cn3)ccn2)CC1
Second compound 0.0316 µM
  IC50: 126 nM
Second compound 0.1 µM
  IC50: 58.6 nM
Second compound 0.316 µM
  IC50: 16.6 nM
Second compound 1 µM
  IC50: < 3.16 nM
Second compound 3.16 µM
  IC50: < 3.16 nM
Second compound 10 µM
  IC50: < 3.16 nM
Second compound 0.0316 µM, first compound 0.00316 µM
  viability, T/C: 89.7%
Second compound 0.0316 µM, first compound 0.01 µM
  viability, T/C: 79.2%
[1]
  viability, T/C: 57.2%
[2]
  viability, T/C: 56.6%
[3]
  viability, T/C: 43%
[4]
  viability, T/C: 26.9%
Second compound 0.1 µM, first compound 0.00316 µM
  viability, T/C: 91%
Second compound 0.1 µM, first compound 0.01 µM
  viability, T/C: 70.7%
[7]
  viability, T/C: 55.6%
[8]
  viability, T/C: 44.8%
[9]
  viability, T/C: 33.8%
[10]
  viability, T/C: 19.5%
Second compound 0.316 µM, first compound 0.00316 µM
  viability, T/C: 57.9%
Second compound 0.316 µM, first compound 0.01 µM
  viability, T/C: 51.2%
[13]
  viability, T/C: 46.2%
[14]
  viability, T/C: 35%
[15]
  viability, T/C: 17.7%
[16]
  viability, T/C: 6.98%
Second compound 1 µM, first compound 0.00316 µM
  viability, T/C: 6.14%
Second compound 1 µM, first compound 0.01 µM
  viability, T/C: 5.27%
[19]
  viability, T/C: 2.85%
[20]
  viability, T/C: 1.7%
[21]
  viability, T/C: 3.66%
[22]
  viability, T/C: 5.38%
Second compound 3.16 µM, first compound 0.00316 µM
  viability, T/C: 1.13%
Second compound 3.16 µM, first compound 0.01 µM
  viability, T/C: 0.73%
[25]
  viability, T/C: 1.24%
[26]
  viability, T/C: 1.43%
[27]
  viability, T/C: 3.98%
[28]
  viability, T/C: 8.54%
Second compound 10 µM, first compound 0.00316 µM
  viability, T/C: 1.3%
Second compound 10 µM, first compound 0.01 µM
  viability, T/C: 2.51%
[31]
  viability, T/C: 0.56%
[32]
  viability, T/C: 0.63%
[33]
  viability, T/C: 0.8%
[34]
  viability, T/C: 3.96%

## COc1cccc2c1C(=O)c1c(O)c3c(c(O)c1C2=O)CC(O)(C(=O)CO)CC3OC1CC(N)C(O)C(C)O1 (stereo unspecified) + CN1CCN(c2cc(C(=O)Nc3cc4cc(-c5cnn(C)c5)ccc4cn3)ccn2)CC1
Second compound 0.0316 µM
  IC50: 1400 nM
Second compound 0.1 µM
  IC50: 775 nM
Second compound 0.316 µM
  IC50: 218 nM
Second compound 1 µM
  IC50: < 31.6 nM
Second compound 3.16 µM
  IC50: < 31.6 nM
Second compound 10 µM
  IC50: < 31.6 nM
[1]
  viability, T/C: 89.6%
[2]
  viability, T/C: 91.8%
[3]
  viability, T/C: 71.9%
[4]
  viability, T/C: 52.5%
[5]
  viability, T/C: 45.2%
[6]
  viability, T/C: 33.8%
[7]
  viability, T/C: 89.3%
[8]
  viability, T/C: 83.5%
[9]
  viability, T/C: 60.2%
[10]
  viability, T/C: 44.5%
[11]
  viability, T/C: 40.6%
[12]
  viability, T/C: 26.3%
[13]
  viability, T/C: 67.8%
[14]
  viability, T/C: 56.9%
[15]
  viability, T/C: 42.1%
[16]
  viability, T/C: 38.6%
[17]
  viability, T/C: 33.6%
[18]
  viability, T/C: 16.1%
[19]
  viability, T/C: 4.05%
[20]
  viability, T/C: 4.33%
[21]
  viability, T/C: 4.01%
[22]
  viability, T/C: 3.89%
[23]
  viability, T/C: 4.94%
[24]
  viability, T/C: 7.17%
[25]
  viability, T/C: 0.81%
[26]
  viability, T/C: 1.53%
[27]
  viability, T/C: 2.41%
[28]
  viability, T/C: 2.9%
[29]
  viability, T/C: 5.23%
[30]
  viability, T/C: 5.47%
[31]
  viability, T/C: 1.39%
[32]
  viability, T/C: 0.35%
[33]
  viability, T/C: 0.5%
[34]
  viability, T/C: 0.45%
[35]
  viability, T/C: 0.53%
[36]
  viability, T/C: 0.61%

Source: PubChem BioAssay AID2060600 (Molecular Pharmacology Branch, DTP, NCI, 2025)
